Data reported in patent publication US20240173302A1, “TREATMENT OF INFLAMMATORY DISEASES” (DIMERIX BIOSCIENCE PTY LTD, priority 2021, published 2024).
“Also recorded” adds a separate entry of the source.

How the values were obtained:
ETAR and CCR2 heteromer = biological target: T1, ETAR and CCR2 heteromer (Homo sapiens, UniProt P25101+P41597); test: Receptor-HIT BRET β-arrestin recruitment assay, ETAR/Rluc8+Barr2/Venus+CCR2; format: cell-based; settings: HEK293FT cells; for agonist-induced β-arrestin recruitment to ETAR (ligand-induced BRET): no antagonist; for hyperactivation of β-arrestin recruitment to ETAR (ligand-induced BRET): both CCL2/MCP-1 and ET-1 present
T1 construct: expressed in transfected cells; host or cells: HEK293FT
Description: HEK293FT cells were seeded in 6-well plates at a density of approximately 700,000 cells/well and maintained at 37° C., 5% CO2 in Complete Media (DMEM containing 0.3 mg/ml glutamine, 100 IU/ml penicillin and 100 μg/ml streptomycin (Thermo Fisher)) supplemented with 10% fetal calf serum (FCS; Bovogen). Transient transfections were carried out 24 h after seeding using FuGene6 (Promega) according to manufacturer instructions. 24 h post-transfection, cells were washed with PBS, detached using 0.05% trypsin/0.53 mM EDTA, resuspended in phenol red free Complete Media containing 5% FCS and added to a poly-L-lysine-coated white 96-well microplate (Greiner Bio-One). 48 h post-transfection, bioluminescence resonance energy transfer (BRET) assays were carried out following pre-incubation of cells with EnduRen™ (Promega) at a final concentration of 30 μM, at 37° ° C., 5% CO2 for 2 h. BRET measurements were taken at 37° C. using the CLARIOstar (BMG Labtech). Filtered light emissions were sequentially measured for 1 s in each of the ‘donor wavelength window’ (410-490 nm) and ‘acceptor wavelength window’ (520-620 nm).
For antagonist assays, cells were pre-incubated in EnduRen for 2 h. The antagonists (10 μM) were added and the assay was read for 30 min. Subsequently, the agonists (CXCL8 10 nM, AngII 100 nM) were added and the measurements continued for another 1 h.
The BRET signal observed between interacting proteins is normalized by subtracting the background BRET ratio. This can be done in one of two ways (see Pfleger et al. (2006) Cell Signal 18:1664-1670; Pfleger et al. (2006) Nat Protoc 1:336-344): 1) the ratio of the 520-550 nm emission over the 460-490 nm emission for a cell sample containing only the donor construct is subtracted from the same ratio for a sample containing the interacting acceptor and donor fusion proteins; 2) the ratio of the 520-550 nm emission over the 460-490 nm emission for a cell sample treated with vehicle is subtracted from the same ratio for a second aliquot of the same cell sample treated with ligand. In the following examples, the second calculation will be used and the signal is described as ‘ligand-induced BRET’.
The Receptor-Heteromer Investigation Technology (Receptor-HIT) is an assay configuration that provides insights into receptor complexes (Ayoub et al. (2015) PLOS One 10(3):e0119803). It is also known as GPCR-HIT when assessing GPCRs. It is an assay configuration whereby one receptor (eg. CCR2) is labelled with one component (eg. Renilla luciferase variant Rluc8) of a proximity-based reporter system (eg. BRET), the complementary component of which (eg. yellow fluorescent protein Venus) is fused to a receptor interacting partner (eg. β-arrestin 2). Treatment with a ligand (eg. AngII) selective for the receptor untagged with respect to the BRET assay (eg. hemagglutinin epitope-tagged AT1R; HA-AT1R) results in modulation of the proximity of the BRET-tagged receptor and the interacting partner, resulting in a change in BRET signal that is indicative of functional interaction between the two receptors.

[1] = system: CCR2 in the presence of unlabelled ETAR; test: Receptor-HIT BRET β-arrestin recruitment assay, CCR2/Rluc8+Barr2/Venus+HA-ETAR; format: cell-based, human; settings: HEK293FT cells

T1 sequence (P25101 21-427): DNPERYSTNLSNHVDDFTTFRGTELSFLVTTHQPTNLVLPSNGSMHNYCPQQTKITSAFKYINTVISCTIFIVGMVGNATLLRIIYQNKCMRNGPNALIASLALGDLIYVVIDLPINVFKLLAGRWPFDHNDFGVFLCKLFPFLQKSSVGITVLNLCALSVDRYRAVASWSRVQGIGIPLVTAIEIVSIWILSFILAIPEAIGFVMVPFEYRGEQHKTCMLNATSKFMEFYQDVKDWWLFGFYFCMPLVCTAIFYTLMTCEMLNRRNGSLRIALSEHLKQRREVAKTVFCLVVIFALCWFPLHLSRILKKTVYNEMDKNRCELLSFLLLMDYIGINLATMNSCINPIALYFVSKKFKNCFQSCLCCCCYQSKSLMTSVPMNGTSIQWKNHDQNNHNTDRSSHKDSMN
T1 sequence (P41597 whole entry): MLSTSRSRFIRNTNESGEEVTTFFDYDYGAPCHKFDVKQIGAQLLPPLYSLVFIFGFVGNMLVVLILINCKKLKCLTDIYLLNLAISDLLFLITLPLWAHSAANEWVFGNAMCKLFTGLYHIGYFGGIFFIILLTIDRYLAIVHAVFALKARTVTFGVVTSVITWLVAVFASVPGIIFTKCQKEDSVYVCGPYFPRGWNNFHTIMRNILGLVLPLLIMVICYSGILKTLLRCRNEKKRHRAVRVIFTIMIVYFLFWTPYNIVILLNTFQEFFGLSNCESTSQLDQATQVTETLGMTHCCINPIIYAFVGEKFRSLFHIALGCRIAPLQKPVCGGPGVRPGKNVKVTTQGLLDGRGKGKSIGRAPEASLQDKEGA

| Compound | agonist-induced β-arrestin recruitment to ETAR (ligand-induced BRET) (ETAR and CCR2 heteromer) | agonist-induced β-arrestin recruitment to CCR2 (ligand-induced BRET) ([1]; no antagonist) | agonist-induced β-arrestin recruitment to ETAR (ligand-induced BRET) (ETAR and CCR2 heteromer; listed as CCL2) | agonist-induced β-arrestin recruitment to ETAR (ligand-induced BRET) (ETAR and CCR2 heteromer; listed as CCL2/MCP1) | increased recruitment of β-arrestin to CCR2 (ligand-induced BRET) ([1]; CCL2/MCP-1 and ET-1 present, antagonists 10 μM) | β-arrestin recruitment to ETAR stimulated with ET-1 (ligand-induced BRET) (ETAR and CCR2 heteromer; ET-1 alone, antagonists 10 μM) | hyperactivation of β-arrestin recruitment to ETAR (ligand-induced BRET) (ETAR and CCR2 heteromer; antagonists 10 μM) | hyperactivation of β-arrestin recruitment to ETAR (ligand-induced BRET) (ETAR and CCR2 heteromer; antagonists 10 μM, listed as sparsentan) |
| --- | --- | --- | --- | --- | --- | --- | --- | --- |
| endothelin-1 [ET-1] | β-arrestin is recruited to ETAR; also recorded: recruit β-arrestin at a low magnitude |  |  |  |  |  |  |  |
| monocyte chemoattractant protein-1 [CCL2/MCP-1] | β-arrestin is recruited to ETAR | β-arrestin is recruited to CCR2 | β-arrestin recruitment to ETAR occurs | β-arrestin is recruited to ETAR |  |  |  |  |
| CCCCC1=NC2(CCCC2)C(=O)N1Cc1ccc(-c2ccccc2S(=O)(=O)Nc2noc(C)c2C)c(COCC)c1 [Sparsentan, 2-[4-[(2-butyl-4-oxo-1,3-diazaspiro[4.4]non-1-en-3-yl)methyl]-2-(ethoxymethyl)phenyl]-N-(4,5-dimethyl-1,2-oxazol-3-yl)benzenesulfonamide] |  |  |  |  | increased recruitment of β-arrestin is not observed | inhibits this signalling independent of CCR2 activation | abrogate the hyperactivation when both CCL2/CMP-1 and ET-1 ligands are present but not cease recruitment of β-arrestin to ETAR | abrogated |
